{"source": "ChEMBL document CHEMBL3044654", "about": "“Sensitivity of four isolates of Clonostachys rosea to pesticides used in the strawberry crop in Brazil” (2012)", "assay_type_in_all_cases": "functional", "key": {"Clonostachys rosea [1]": {"system": "Clonostachys rosea", "experiment": "Toxicity against Bionectria ochroleuca assessed as inhibition of mycelial growth at 0.003 to 0.020 ug/ml measured every 24 hr intervals over 192 hr"}, "Clonostachys rosea [2]": {"system": "Clonostachys rosea", "experiment": "Toxicity against Bionectria ochroleuca I60 assessed as inhibition of mycelial growth at 0.003 to 0.020 mg/ml measured every 24 hr intervals over 192 hr"}, "Clonostachys rosea [3]": {"system": "Clonostachys rosea", "experiment": "Toxicity against Bionectria ochroleuca I61 assessed as inhibition of mycelial growth at 0.003 to 0.020 mg/ml measured every 24 hr intervals over 192 hr"}, "Clonostachys rosea [4]": {"system": "Clonostachys rosea", "experiment": "Toxicity against Bionectria ochroleuca I19 assessed as inhibition of mycelial growth at 0.003 to 0.020 mg/ml measured every 24 hr intervals over 192 hr"}, "Clonostachys rosea [5]": {"system": "Clonostachys rosea", "experiment": "Toxicity against Bionectria ochroleuca I62 assessed as inhibition of mycelial growth at 0.003 to 0.020 mg/ml measured every 24 hr intervals over 192 hr"}, "Clonostachys rosea [6]": {"system": "Clonostachys rosea", "experiment": "Toxicity against Bionectria ochroleuca assessed as inhibition of conidial germination at 0.003 to 0.020 ug/ml measured every 24 hr intervals over 192 hr"}, "Clonostachys rosea [7]": {"system": "Clonostachys rosea", "experiment": "Toxicity against Bionectria ochroleuca assessed as inhibition of mycelial growth at 0.011 to 0.066 mg/ml"}, "Clonostachys rosea [8]": {"system": "Clonostachys rosea", "experiment": "Toxicity against Bionectria ochroleuca assessed as inhibition of conidial germination at 0.011 to 0.066 mg/ml"}, "Clonostachys rosea [9]": {"system": "Clonostachys rosea", "experiment": "Toxicity against Bionectria ochroleuca assessed as inhibition of mycelial growth at 0.9 to 1.13 mg/ml measured every 24 hr intervals over 192 hr"}, "Clonostachys rosea [10]": {"system": "Clonostachys rosea", "experiment": "Toxicity against Bionectria ochroleuca assessed as inhibition of conidial germination at 0.9 to 1.13 mg/ml measured every 24 hr intervals over 192 hr"}, "Clonostachys rosea [11]": {"system": "Clonostachys rosea", "experiment": "Toxicity against Bionectria ochroleuca assessed as inhibition of mycelial growth at 0.048 to 0.292 ug/ml measured every 24 hr intervals over 192 hr"}, "Clonostachys rosea [12]": {"system": "Clonostachys rosea", "experiment": "Toxicity against Bionectria ochroleuca I61 assessed as inhibition of conidial germination at 0.048 to 0.292 mg/ml measured every 24 hr intervals over 192 hr"}, "Clonostachys rosea [13]": {"system": "Clonostachys rosea", "experiment": "Toxicity against Bionectria ochroleuca I19 assessed as inhibition of mycelial growth at 0.048 to 0.292 mg/ml measured every 24 hr intervals over 192 hr"}, "Clonostachys rosea [14]": {"system": "Clonostachys rosea", "experiment": "Toxicity against Bionectria ochroleuca assessed as inhibition of conidial germination at 0.048 to 0.292 ug/ml measured every 24 hr intervals over 192 hr"}, "Clonostachys rosea [15]": {"system": "Clonostachys rosea", "experiment": "Toxicity against Bionectria ochroleuca I60 assessed as inhibition of conidial germination at 0.048 to 0.292 mg/ml measured every 24 hr intervals over 192 hr"}, "Clonostachys rosea [16]": {"system": "Clonostachys rosea", "experiment": "Toxicity against Bionectria ochroleuca I62 assessed as inhibition of mycelial growth at 0.048 to 0.292 mg/ml measured every 24 hr intervals over 192 hr"}, "Clonostachys rosea [17]": {"system": "Clonostachys rosea", "experiment": "Toxicity against Bionectria ochroleuca I19 assessed as inhibition of conidial germination at 0.048 to 0.292 mg/ml measured every 24 hr intervals over 192 hr"}, "Clonostachys rosea [18]": {"system": "Clonostachys rosea", "experiment": "Toxicity against Bionectria ochroleuca I62 assessed as inhibition of conidial germination at 0.048 to 0.292 mg/ml measured every 24 hr intervals over 192 hr"}, "Clonostachys rosea [19]": {"system": "Clonostachys rosea", "experiment": "Toxicity against Bionectria ochroleuca I60 assessed as inhibition of mycelial growth at 0.048 to 0.292 mg/ml measured every 24 hr intervals over 192 hr"}, "Clonostachys rosea [20]": {"system": "Clonostachys rosea", "experiment": "Toxicity against Bionectria ochroleuca I61 assessed as inhibition of mycelial growth at 0.048 to 0.292 mg/ml measured every 24 hr intervals over 192 hr"}, "Clonostachys rosea [21]": {"system": "Clonostachys rosea", "experiment": "Toxicity against Bionectria ochroleuca assessed as inhibition of mycelial growth at 0.12 to 0.75 mg/ml measured every 24 hr intervals over 192 hr"}, "Clonostachys rosea [22]": {"system": "Clonostachys rosea", "experiment": "Toxicity against Bionectria ochroleuca I60 assessed as inhibition of conidial germination at 0.12 to 0.75 mg/ml measured every 24 hr intervals over 192 hr"}, "Clonostachys rosea [23]": {"system": "Clonostachys rosea", "experiment": "Toxicity against Bionectria ochroleuca I62 assessed as inhibition of conidial germination at 0.12 to 0.75 mg/ml measured every 24 hr intervals over 192 hr"}, "Clonostachys rosea [24]": {"system": "Clonostachys rosea", "experiment": "Toxicity against Bionectria ochroleuca assessed as inhibition of conidial germination at 0.12 to 0.75 mg/ml measured every 24 hr intervals over 192 hr"}, "Clonostachys rosea [25]": {"system": "Clonostachys rosea", "experiment": "Toxicity against Bionectria ochroleuca I61 assessed as inhibition of conidial germination at 0.12 to 0.75 mg/ml measured every 24 hr intervals over 192 hr"}, "Clonostachys rosea [26]": {"system": "Clonostachys rosea", "experiment": "Toxicity against Bionectria ochroleuca I19 assessed as inhibition of conidial germination at 0.12 to 0.75 mg/ml measured every 24 hr intervals over 192 hr"}, "Clonostachys rosea [27]": {"system": "Clonostachys rosea", "experiment": "Toxicity against Bionectria ochroleuca assessed as inhibition of conidial germination at 0.005 to 0.033 ug/ml"}, "Clonostachys rosea [28]": {"system": "Clonostachys rosea", "experiment": "Toxicity against Bionectria ochroleuca assessed as inhibition of mycelial growth at 0.005 to 0.033 ug/ml"}}, "data": [{"smiles": "CC[C@H](C)[C@H]1O[C@]2(C=C[C@@H]1C)C[C@@H]1C[C@@H](C/C=C(\\C)[C@@H](O[C@H]3C[C@H](OC)[C@@H](O[C@H]4C[C@H](OC)[C@@H](O)[C@H](C)O4)[C@H](C)O3)[C@@H](C)/C=C/C=C3\\CO[C@@H]4[C@H](O)C(C)=C[C@@H](C(=O)O1)[C@]34O)O2.CO[C@H]1C[C@H](O[C@H]2[C@H](C)O[C@@H](O[C@@H]3/C(C)=C/C[C@@H]4C[C@@H](C[C@]5(C=C[C@H](C)[C@@H](C(C)C)O5)O4)OC(=O)[C@@H]4C=C(C)[C@@H](O)[C@H]5OC/C(=C\\C=C\\[C@@H]3C)[C@]54O)C[C@@H]2OC)O[C@@H](C)[C@@H]1O", "note": "[ABAMECTIN]", "values": [{"measurement": "growth inhibition (GI)", "setting": "Clonostachys rosea [1]", "result": 0.5, "unit": "%"}, {"measurement": "growth inhibition (GI)", "setting": "Clonostachys rosea [2]", "result": 6.51, "unit": "%"}, {"measurement": "growth inhibition (GI)", "setting": "Clonostachys rosea [3]", "result": 9.79, "unit": "%"}, {"measurement": "growth inhibition (GI)", "setting": "Clonostachys rosea [4]", "result": 5.79, "unit": "%"}, {"measurement": "growth inhibition (GI)", "setting": "Clonostachys rosea [5]", "result": 9.64, "unit": "%"}, {"measurement": "inhibition (INH)", "setting": "Clonostachys rosea [6]", "result": 1, "unit": "%"}]}, {"smiles": "CCc1cccc(C)c1N(C(=O)CCl)[C@@H](C)COC", "note": "[S-METOLACHLOR]", "values": [{"measurement": "growth inhibition (GI)", "setting": "Clonostachys rosea [7]", "result": 3.6, "unit": "%"}, {"measurement": "inhibition (INH)", "setting": "Clonostachys rosea [8]", "result": 2.2, "unit": "%"}]}, {"smiles": "CC(C)NC(=O)N1CC(=O)N(c2cc(Cl)cc(Cl)c2)C1=O", "note": "[IPRODIONE]", "values": [{"measurement": "growth inhibition (GI)", "setting": "Clonostachys rosea [9]", "result": 79, "unit": "%"}, {"measurement": "inhibition (INH)", "setting": "Clonostachys rosea [10]", "result": 55, "unit": "%"}]}, {"smiles": "CC1(C)C(C(=O)OC(C#N)c2cccc(Oc3ccccc3)c2)C1(C)C", "note": "(stereo not drawn) [FENPROPATHRIN]", "values": [{"measurement": "growth inhibition (GI)", "setting": "Clonostachys rosea [11]", "result": 1, "unit": "%"}, {"measurement": "inhibition (INH)", "setting": "Clonostachys rosea [12]", "result": 10.7, "unit": "%"}, {"measurement": "growth inhibition (GI)", "setting": "Clonostachys rosea [13]", "result": 8.18, "unit": "%"}, {"measurement": "inhibition (INH)", "setting": "Clonostachys rosea [14]", "result": 6, "unit": "%"}, {"measurement": "inhibition (INH)", "setting": "Clonostachys rosea [15]", "result": 10.1, "unit": "%"}, {"measurement": "growth inhibition (GI)", "setting": "Clonostachys rosea [16]", "result": 10.77, "unit": "%"}, {"measurement": "inhibition (INH)", "setting": "Clonostachys rosea [17]", "result": 12.7, "unit": "%"}, {"measurement": "inhibition (INH)", "setting": "Clonostachys rosea [18]", "result": 9.9, "unit": "%"}, {"measurement": "growth inhibition (GI)", "setting": "Clonostachys rosea [19]", "result": 3.93, "unit": "%"}, {"measurement": "growth inhibition (GI)", "setting": "Clonostachys rosea [20]", "result": 7.16, "unit": "%"}]}, {"smiles": "COC(=O)NC(=S)Nc1ccccc1NC(=S)NC(=O)OC", "note": "[THIOPHANATE METHYL]", "values": [{"measurement": "growth inhibition (GI)", "setting": "Clonostachys rosea [21]", "result": 90, "unit": "%"}, {"measurement": "inhibition (INH)", "setting": "Clonostachys rosea [22]", "result": 37.4, "unit": "%"}, {"measurement": "inhibition (INH)", "setting": "Clonostachys rosea [23]", "result": 69.3, "unit": "%"}, {"measurement": "inhibition (INH)", "setting": "Clonostachys rosea [24]", "result": 31, "unit": "%"}, {"measurement": "inhibition (INH)", "setting": "Clonostachys rosea [25]", "result": 39.4, "unit": "%"}, {"measurement": "inhibition (INH)", "setting": "Clonostachys rosea [26]", "result": 40.8, "unit": "%"}]}, {"smiles": "O=C(O)CNCP(=O)(O)O", "note": "[GLYPHOSATE]", "values": [{"measurement": "inhibition (INH)", "setting": "Clonostachys rosea [27]", "result": 2.2, "unit": "%"}, {"measurement": "growth inhibition (GI)", "setting": "Clonostachys rosea [28]", "result": 3.6, "unit": "%"}]}]}
